According to US20190336498A1, “METHODS AND COMPOSITIONS FOR THE TREATMENT OF CUSHING'S SYNDROME USING 2S, 4R KETOCONAZOLE” (STRONGBRIDGE DUBLIN LIMITED, priority 2014, published 2019):

What was measured:
Cushing's syndrome = conditions: off-label, titrated to effect; cited from earlier work
C-reactive protein (CRP) = conditions: clinical study; cited from earlier work
corticosterone = conditions: rats; vs the other enantiomers or racemic ketoconazole; cited from earlier work
11-β-hydroxylase = conditions: comparison in words; cited from earlier work
[1] = Safety and tolerability in healthy volunteers and subjects with Type 2 Diabetes Mellitus; assay type: in vivo, human; conditions: 200 mg to 600 mg QD for up to 14 days and 150 mg to 450 mg for up to 4 months; healthy volunteers and T2DM subjects
cholesterol = conditions: vs the other enantiomer; cited from earlier work
QTc interval = QTc interval prolongation; conditions: in vivo
Source text: The potential risk of protracted, drug induced prolongation of the QTc interval on the ECG is the development of an arrhythmia called torsade de pointes. […] Subjects with CS may have greater than normal QTc intervals and treatment that reduces cortisol levels may result in reductions in QTc intervals.

14-α-demethylase = biological target: T1, 14-α-demethylase (Rattus norvegicus, UniProt Q64654); conditions: comparison in words; cited from earlier work
T1 sequence (Q64654 1-503): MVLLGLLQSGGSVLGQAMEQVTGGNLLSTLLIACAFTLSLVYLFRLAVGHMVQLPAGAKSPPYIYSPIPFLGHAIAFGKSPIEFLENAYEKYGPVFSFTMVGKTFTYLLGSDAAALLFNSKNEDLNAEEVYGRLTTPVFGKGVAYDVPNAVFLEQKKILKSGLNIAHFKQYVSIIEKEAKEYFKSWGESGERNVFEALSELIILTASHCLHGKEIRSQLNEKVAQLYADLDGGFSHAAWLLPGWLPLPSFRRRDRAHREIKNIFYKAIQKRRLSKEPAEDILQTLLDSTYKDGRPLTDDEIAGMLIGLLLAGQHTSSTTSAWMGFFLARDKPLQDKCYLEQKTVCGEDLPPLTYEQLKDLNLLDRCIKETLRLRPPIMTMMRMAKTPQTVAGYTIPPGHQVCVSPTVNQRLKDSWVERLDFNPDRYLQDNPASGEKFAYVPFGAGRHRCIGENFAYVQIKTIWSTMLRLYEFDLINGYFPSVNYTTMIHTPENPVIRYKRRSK

[2] = Pharmacokinetics of the enantiomers in humans after oral administration of ketoconazole; assay type: in vivo; conditions: following oral administration of ketoconazole (racemic)
Source text: Reduced hepatic exposure to the 2S,4R enantiomer may be of value in reducing the liver function abnormalities observed following administration of racemic ketoconazole.

## CC(=O)N1CCN(c2ccc(OCC3COC(Cn4ccnc4)(c4ccc(Cl)cc4Cl)O3)cc2)CC1 (racemic) [racemic ketoconazole, reference compound]
Cushing's syndrome
  therapeutic success rate in CS: 50-70%
C-reactive protein (CRP)
  reduction in C-reactive protein (CRP) levels: no reduction

## CC(=O)N1CCN(c2ccc(OC[C@@H]3CO[C@@](Cn4ccnc4)(c4ccc(Cl)cc4Cl)O3)cc2)CC1 (racemic) [2S,4R ketoconazole enantiomer]
corticosterone
  potency with respect to reducing corticosterone: more potent
11-β-hydroxylase
  IC50 toward the key enzyme in cortisol synthesis (11-α-hydroxylase) compared with the other enantiomer: significantly lower IC50
  IC50 toward the key enzyme in cortisol synthesis (11-β-hydroxylase) compared with the other enantiomer: significantly lower IC50
[1]
  safety and tolerability: generally safe and well tolerated
cholesterol
  reduction of cholesterol: appeared to reduce cholesterol more than the other enantiomer
QTc interval
  prolongation of QTc intervals: capability to prolong QTc intervals in a dose (concentration) related manner
14-α-demethylase
  IC50 toward a key enzyme in cholesterol synthesis (14-α-demethylase) compared with the other enantiomer: significantly lower IC50
C-reactive protein (CRP)
  reduction in C-reactive protein (CRP) levels: dose response reduction
[2]
  blood concentrations of the 2S,4R enantiomer exceed those of the 2R,4S enantiomer: approximately 3 fold
